The values below come from patent publication US20260256925A1, “INDAZOLE DERIVATIVES AS ESTROGEN RECEPTOR DEGRADERS” (REGENTS OF THE UNIVERSITY OF MICHIGAN, priority 2022, published 2026).

The target of one test is T1, ERα_LBD (GST) (Homo sapiens, UniProt P03372).
T1 construct: ERα_LBD (GST) protein: 4 nM; purchased ThermoFisher A15887
T1 sequence (P03372 311-547 limits assumed): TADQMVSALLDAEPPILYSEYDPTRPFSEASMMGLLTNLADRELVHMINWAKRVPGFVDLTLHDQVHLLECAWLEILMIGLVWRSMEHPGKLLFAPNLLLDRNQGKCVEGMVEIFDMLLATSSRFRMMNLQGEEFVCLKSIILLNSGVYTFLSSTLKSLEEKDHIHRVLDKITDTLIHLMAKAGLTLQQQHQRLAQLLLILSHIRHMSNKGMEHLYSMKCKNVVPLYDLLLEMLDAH
The experiment in a line: IC50 measurements for binding to ERα_LBD (GST), LanthaScreen TR-FRET ERα competitive binding assay. As to conditions: Fluormone ES2 Green tracer, 60 min, read-out: ERα HTRF IC50. The procedure: In vitro Assay: IC50 Measurements for binding to ERα_LBD (GST)·
Final assay conditions: • 1. ERα_LBD (GST) protein: 4 nM • 2. Tb Anti-GST: 2 nM • 3. Fluormone ES2 Green tracer: 3 nM • 4. Incubation time: 60 min • 5. DMSO: 1% • 6. Assay buffer: Adding 1M DTT to Nuclear receptor Buffer K for final 5 mM DTT. • 7. ZPE: 1% DMSO • 8. HPE: 1 μM ARV_471 • 9. LanthaScreen® TR-FRET ERα Competitive Binding Assay (ThermoFisher, #A^15887)
100× Compound preparation: • 1) Cherry pick 2 μL 10 mM compound stock to column 1 of a 384 intermediate plate • 2) Add 18 μL DMSO to column 1 to dilute compound to 1 mM. • 3) Transfer 10 μL 1 mM compound to column 1 of a LDV plate. • 2) Add 6 μl DMSO to column 2-10 of the LDV plate. • 3) Compounds undergo 3-fold serial dilution (3 μL+6 μL) in DMSO. • 4) Transfer 120 nL compound solution to assay plate.
Prepare complete nuclear receptor buffer K by adding 1 M DTT to nuclear receptor buffer K for a final concentration of 5 mM DTT. Complete nuclear receptor buffer K must be prepared fresh daily. Prepare 2× protein solution using complete nuclear receptor buffer K containing 8 nM ERα_LBD (GST) and 4 nM Tb Anti-GST. Then, prepare 2× Fluormone ES2 Green tracer (6 nM) using complete nuclear receptor buffer K. Add 6 μL 2× Fluormone ES2 green tracer into a compound plate (PerkinElmer 6008289) by dragonfly with one-tips-addition. Subsequently, add 6 μL 2× protein solution into the plate. Briefly and gently mix the 384-well plate on a plate shaker and incubate at room temperature protected from light for 60 min. The plate is sealed with a cover to minimize evaporation. Read the plate at wavelengths of 520 nm and 495 nm. Calculate the TR-FRET ratio by dividing the emission signal at 520 nm by the emission signal at 495 nm. Generate a binding curve by plotting the emission ratio vs. the log [ligand]. To determine the IC50 value, fit the data using XL-fit for a sigmoidal dose-response.
A general note: TR-FRET usually uses a lanthanide donor and a delayed reading to cut background.

For test [1], the target named is T2, ER (Homo sapiens, UniProt P03372).
T2 construct: endogenous in cells; probably T47D or MCF-7
T2 sequence (P03372 1-595): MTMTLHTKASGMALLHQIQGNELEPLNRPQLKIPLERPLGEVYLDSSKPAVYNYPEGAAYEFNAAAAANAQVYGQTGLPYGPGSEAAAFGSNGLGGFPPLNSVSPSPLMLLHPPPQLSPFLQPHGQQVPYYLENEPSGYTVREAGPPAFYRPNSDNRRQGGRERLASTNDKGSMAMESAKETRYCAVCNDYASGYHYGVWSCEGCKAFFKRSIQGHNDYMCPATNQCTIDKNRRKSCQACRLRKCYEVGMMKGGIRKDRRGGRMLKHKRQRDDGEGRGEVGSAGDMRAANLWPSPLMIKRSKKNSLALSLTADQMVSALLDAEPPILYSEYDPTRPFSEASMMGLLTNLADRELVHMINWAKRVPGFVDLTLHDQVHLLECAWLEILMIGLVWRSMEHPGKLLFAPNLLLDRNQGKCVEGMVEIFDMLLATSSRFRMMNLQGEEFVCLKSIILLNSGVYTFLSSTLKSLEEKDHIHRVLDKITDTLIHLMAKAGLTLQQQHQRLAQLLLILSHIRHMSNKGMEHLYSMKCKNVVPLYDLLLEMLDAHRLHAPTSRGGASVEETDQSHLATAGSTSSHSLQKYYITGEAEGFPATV
The experiment in a line: In-cell Western (ICW) ER degradation assay in MCF-7 cells. The test is classed as cell-based. The note with it: for DC50: read-out: ER MCF7 ICW DC50.

Test [2] deals with T2, ER. The experiment in a line: In-cell Western (ICW) ER degradation assay in T47D cells. The test is classed as cell-based. The note with it: for Dmax: T47D, read-out: ER T47D ICW Dmax (%).
The test system of the next test is MCF-7 cells. The experiment in a line: CellTiter-Glo (CTG) cell proliferation assay in MCF-7 cells. The test is classed as cell-based. The note with it: Homo sapiens, MCF7, 144 h, Day 6. From the text: (§1) CellTiter-Glo® (CTG) assays in MCF-7 and T47D cell lines.
(§2) In vitro Assay: MCF-7 and T47D CTG assay
For orientation: Cellular ATP, detected with luciferase, serves as a proxy for viable cell number.

For another test, the system named is T47D cells. The experiment in a line: CellTiter-Glo (CTG) cell proliferation assay in T47D cells. The test is classed as cell-based. The note with it: Homo sapiens, 144 h, Day 6.
Source text: as §1, §2

For a further test, the target named is T3, CRBN/DDB1 (Homo sapiens, UniProt Q96SW2).
T3 construct: purchased Wuxi RP210521GA
The test is classed as binding. As to conditions: HTRF, Cy5-labeled Thalidomide probe. How it is done:
The binding potency was determined using HTRF assay technology (Perkin Elmer). Compounds were serially diluted in DMSO and 0.2 μL volume was transferred to white 384-well plate.

The mark [3] stands for this setting: MCF7, read-out: ER MCF7 ICW Dmax (%).

A value given as a limit tells only on which side of the number the result lay.

T3 sequence (Q96SW2 whole entry): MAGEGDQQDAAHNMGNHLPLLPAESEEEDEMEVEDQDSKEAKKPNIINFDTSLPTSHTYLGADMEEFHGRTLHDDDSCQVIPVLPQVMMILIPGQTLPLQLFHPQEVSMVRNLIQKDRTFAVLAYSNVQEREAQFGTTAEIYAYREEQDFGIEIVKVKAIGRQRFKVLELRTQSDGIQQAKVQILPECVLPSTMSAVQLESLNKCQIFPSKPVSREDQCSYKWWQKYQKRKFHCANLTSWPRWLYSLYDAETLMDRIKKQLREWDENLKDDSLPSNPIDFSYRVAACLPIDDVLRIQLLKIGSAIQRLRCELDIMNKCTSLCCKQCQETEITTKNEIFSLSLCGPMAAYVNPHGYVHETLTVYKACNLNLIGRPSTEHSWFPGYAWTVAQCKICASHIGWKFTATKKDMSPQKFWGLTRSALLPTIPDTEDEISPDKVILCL
T3 sequence (Q16531 whole entry partner): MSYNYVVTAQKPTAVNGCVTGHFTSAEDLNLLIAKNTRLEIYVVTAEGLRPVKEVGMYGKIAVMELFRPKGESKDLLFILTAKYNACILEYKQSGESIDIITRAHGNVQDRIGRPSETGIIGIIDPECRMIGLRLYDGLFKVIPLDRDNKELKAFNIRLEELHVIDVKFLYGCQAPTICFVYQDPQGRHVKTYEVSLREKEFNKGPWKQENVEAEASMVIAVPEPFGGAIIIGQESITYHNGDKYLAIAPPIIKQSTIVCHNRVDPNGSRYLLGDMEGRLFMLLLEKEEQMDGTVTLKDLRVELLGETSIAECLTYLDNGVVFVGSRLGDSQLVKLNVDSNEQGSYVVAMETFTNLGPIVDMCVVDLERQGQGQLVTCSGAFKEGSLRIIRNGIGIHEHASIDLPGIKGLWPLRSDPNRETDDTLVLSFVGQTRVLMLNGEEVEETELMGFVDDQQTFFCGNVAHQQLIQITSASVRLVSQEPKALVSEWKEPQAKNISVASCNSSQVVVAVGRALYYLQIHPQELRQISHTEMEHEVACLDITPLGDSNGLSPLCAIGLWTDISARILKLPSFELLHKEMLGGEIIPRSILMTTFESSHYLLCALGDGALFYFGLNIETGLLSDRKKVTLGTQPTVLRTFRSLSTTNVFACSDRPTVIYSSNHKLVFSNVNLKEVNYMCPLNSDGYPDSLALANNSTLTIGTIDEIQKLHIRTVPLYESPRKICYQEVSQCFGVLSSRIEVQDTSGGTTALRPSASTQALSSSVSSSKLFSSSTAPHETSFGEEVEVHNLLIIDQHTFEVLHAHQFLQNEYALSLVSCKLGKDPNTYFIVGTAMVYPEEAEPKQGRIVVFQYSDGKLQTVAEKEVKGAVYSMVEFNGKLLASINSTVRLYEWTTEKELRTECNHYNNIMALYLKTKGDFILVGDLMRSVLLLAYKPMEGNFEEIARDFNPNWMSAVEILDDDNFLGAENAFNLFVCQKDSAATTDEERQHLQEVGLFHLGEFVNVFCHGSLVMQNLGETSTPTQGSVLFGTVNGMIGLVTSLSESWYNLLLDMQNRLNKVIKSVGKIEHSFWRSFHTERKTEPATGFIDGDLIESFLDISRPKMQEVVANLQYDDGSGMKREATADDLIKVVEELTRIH

For the compound `C[C@@H]1Cc2c(ccc3[nH]ncc23)[C@H](c2ccc(N3CCC4(CC3)CC(CN3CCN5c6ccc7c(c6OC[C@H]5C3)CN([C@H]3CCC(=O)NC3=O)C7=O)CO4)nc2)N1CC(F)(F)F` (stereo partly drawn) [Compound A21, (3S)-3-((5aR)-7-((8-(5-((6R,8R)-8-methyl-7-(2,2,2-trifluoroethyl)-6,7,8,9-tetrahydro-3H-pyrazolo[4,3-f]isoquinolin-6-yl)pyridin-2-yl)-1-oxa-8-azaspiro[4.5]decan-3-yl)methyl)-1-oxo-1,3,5,5a,6,7,8,9-octahydro-2H-pyrazino[1′,2′: 4,5][1,4]oxazino[2,3-e]isoindol-2-yl)piperidine-2,6-dione], the IC50 is below 10 nM at ERα_LBD (GST), below 10 nM in the test with MCF-7 cells and 10 to 50 nM with T47D cells. The Dmax is above 75% at ER [1] (setting [3]) and above 75% at ER [2] (T47D cells, 16 hrs). The DC50 on ER [1] (MCF-7 cells, 16 hrs) is below 1 nM; on ER [2] (T47D cells, 16 hrs) it was below 1 nM.
As for `C[C@@H]1Cc2c(ccc3[nH]ncc23)[C@@H](c2ccc(N3CC4(CCC(CN5CCN6c7ccc8c(c7OC[C@H]6C5)CN([C@H]5CCC(=O)NC5=O)C8=O)CC4)C3)nc2)N1CC(F)(F)F` [Compound A17, (S)-3-((R)-7-((2-(5-((6S,8R)-8-methyl-7-(2,2,2-trifluoroethyl)-6,7,8,9-tetrahydro-3H-pyrazolo[4,3-f]isoquinolin-6-yl)pyridin-2-yl)-2-azaspiro[3.5]nonan-7-yl)methyl)-1-oxo-1,3,5,5a,6,7,8,9-octahydro-2H-pyrazino[1′,2′: 4,5][1,4]oxazino[2,3-e]isoindol-2-yl)piperidine-2,6-dione], the results for the IC50 at ERα_LBD (GST), in the test on MCF-7 cells and in the test on T47D cells were below 10 nM, above 50 nM and 10 to 50 nM, respectively. The Dmax was above 75% on ER [1] (setting [3]) and above 75% at ER [2] (T47D cells, 16 hrs). Besides, the DC50 at ER [1] (MCF-7 cells, 16 hrs) was below 1 nM; on ER [2] (T47D cells, 16 hrs), below 1 nM.
For the compound `COc1cc(N2CCC(CN3CCN4c5ccc6c(c5OC[C@H]4C3)CN(C3CCC(=O)NC3=O)C6=O)CC2)ccc1[C@@H]1c2ccc3[nH]ncc3c2C[C@@H](C)N1CC(F)F` (stereo partly drawn) [Compound A6, 3-((R)-7-((1-(4-((6S,8R)-7-(2,2-difluoroethyl)-8-methyl-6,7,8,9-tetrahydro-3H-pyrazolo[4,3-f]isoquinolin-6-yl)-3-methoxyphenyl)piperidin-4-yl)methyl)-1-oxo-1,3,5,5a,6,7,8,9-octahydro-2H-pyrazino[1′,2′:4,5][1,4]oxazino[2,3-e]isoindol-2-yl)piperidine-2,6-dione], the values for the IC50 against CRBN/DDB1, in the test with MCF-7 cells and in the test on T47D cells were 50 to 500 nM, below 10 nM and below 10 nM, respectively. Further, the “ER MCF7 ICW Dmax (%)” value at ER [1] (MCF-7 cells, 16 hrs) was “B (“B”: >50% and <75%)”. For the same compound, the DC50 on ER [1] (MCF-7 cells, 16 hrs) was below 1 nM; at ER [2] (T47D cells, 16 hrs), below 1 nM. The “ER T47D ICW Dmax (%)” value on ER [2] (T47D cells, 16 hrs) is “B (“B”: >50% and <75%)”.
`C[C@@H]1Cc2c(ccc3[nH]ncc23)[C@H](c2ccc(N3CCC(CN4CCN5c6ccc7c(c6OC[C@H]5C4)CN([C@H]4CCC(=O)NC4=O)C7=O)CC3)nc2)N1CC(F)(F)F` [Compound A19, (S)-3-((R)-7-((1-(5-((6R,8R)-8-methyl-7-(2,2,2-trifluoroethyl)-6,7,8,9-tetrahydro-3H-pyrazolo[4,3-f]isoquinolin-6-yl)pyridin-2-yl)piperidin-4-yl)methyl)-1-oxo-1,3,5,5a,6,7,8,9-octahydro-2H-pyrazino[1′,2′: 4,5][1,4]oxazino[2,3-e]isoindol-2-yl)piperidine-2,6-dione]: the IC50 on ERα_LBD (GST), in the test on MCF-7 cells and in the test with T47D cells was below 10 nM in each case. The Dmax on ER [1] (setting [3]) is 50 to 75%; on ER [2] (T47D cells, 16 hrs), 50 to 75%. The DC50 at ER [1] (MCF-7 cells, 16 hrs) is below 1 nM; at ER [2] (T47D cells, 16 hrs) it was below 1 nM.
With `C[C@@H]1Cc2c(ccc3[nH]ncc23)[C@@H](c2ccc(N3CCC(CN4CCN5c6cc7c(cc6OC[C@@H]5C4)C(=O)N([C@H]4CCC(=O)NC4=O)C7)CC3)nc2)N1CC(F)(F)F` [Compound A24, (S)-3-((S)-3-((1-(5-((6S,8R)-8-methyl-7-(2,2,2-trifluoroethyl)-6,7,8,9-tetrahydro-3H-pyrazolo[4,3-f]isoquinolin-6-yl)pyridin-2-yl)piperidin-4-yl)methyl)-8-oxo-1,2,3,4,4a,5,8,10-octahydro-9H-pyrazino[1′,2′: 4,5][1,4]oxazino[2,3-f]isoindol-9-yl)piperidine-2,6-dione], the IC50 at ERα_LBD (GST) was below 10 nM; in the test with MCF-7 cells it was above 50 nM; with T47D cells, above 50 nM. The Dmax at ER [1] (setting [3]) was 50 to 75%; at ER [2], above 75%. In addition, the DC50 was below 1 nM at ER [1] (MCF-7 cells, 16 hrs) and below 1 nM at ER [2] (T47D cells, 16 hrs).
With `C[C@@H]1Cc2c(ccc3[nH]ncc23)C(c2ccc(N3CCC4(CC3)CC(CN3CCN5c6ccc7c(c6OC[C@H]5C3)CN([C@H]3CCC(=O)NC3=O)C7=O)C4)nc2)N1CC(F)(F)F` (stereo in doubt) [Compound A26, (S)-3-((R)-7-((7-(5-((6R,8R)-8-methyl-7-(2,2,2-trifluoroethyl)-6,7,8,9-tetrahydro-3H-pyrazolo[4,3-f]isoquinolin-6-yl)pyridin-2-yl)-7-azaspiro[3.5]nonan-2-yl)methyl)-1-oxo-1,3,5,5a,6,7,8,9-octahydro-2H-pyrazino[1′,2′: 4,5][1,4]oxazino[2,3-e]isoindol-2-yl)piperidine-2,6-dione], the IC50 on ERα_LBD (GST) was below 10 nM; in the test on MCF-7 cells it was 10 to 50 nM; in the test with T47D cells, 10 to 50 nM. Further, the Dmax at ER [1] (setting [3]) is above 75%; on ER [2] (T47D cells, 16 hrs) it was above 75%. The half-maximal degradation concentration (DC50) at ER [1] (MCF-7 cells, 16 hrs) was below 1 nM; on ER [2] (T47D cells, 16 hrs), below 1 nM.
`C[C@@H]1Cc2c(ccc3[nH]ncc23)[C@@H](c2ccc(N3CCC4(CC3)CC(CN3CCN5c6ccc7c(c6OC[C@H]5C3)CN([C@H]3CCC(=O)NC3=O)C7=O)CO4)nc2)N1CC(F)(F)F` (stereo partly drawn) [Compound A22, (3S)-3-((5aR)-7-((8-(5-((6S,8R)-8-methyl-7-(2,2,2-trifluoroethyl)-6,7,8,9-tetrahydro-3H-pyrazolo[4,3-f]isoquinolin-6-yl)pyridin-2-yl)-1-oxa-8-azaspiro[4.5]decan-3-yl)methyl)-1-oxo-1,3,5,5a,6,7,8,9-octahydro-2H-pyrazino[1′,2′:4,5][1,4]oxazino[2,3-e]isoindol-2-yl)piperidine-2,6-dione]: the IC50 at CRBN/DDB1 was 50 to 500 nM; at ERα_LBD (GST), below 10 nM. Moreover, the maximal degradation (Dmax) lay in the range of 50 to 75% on ER [1] (MCF7, MCF-7 cells, 16 hrs, read-out: ER MCF7 ICW Dmax (%)) and 50 to 75% on ER [2] (T47D cells, 16 hrs). The DC50 is below 1 nM at ER [1] (MCF-7 cells, 16 hrs) and below 1 nM on ER [2] (T47D cells, 16 hrs).

Broadly, the IC50 is the concentration at which inhibition is half-maximal. Broadly, the Dmax is the largest share of the target that was removed. By DC50 is commonly meant the midpoint of the concentration-degradation curve.
